The structures appear in SMILES notation. Structures can show the parent of a compound that is named as a salt.

In one test the test system is hPSC-SCs.
Settings: not given
As for `C=C1CC[C@H](O)C/C1=C/C=C1\CCC[C@]2(C)[C@@H]([C@H](C)CCCC(C)C)CC[C@@H]12` [Cholecalciferol], the z.score.t was found to be 1.034.

`O=C1C=CC(=O)c2c1ccc1c2ccc2ccccc21` [Chrysene-1,4-quinone] had a z.score.t of −1.823.

Turning to `CC(C)(C)NCC(O)c1cc(Cl)c(N)c(Cl)c1` (centres unmarked) [Clenbuterol hydrochloride], the z.score.t turned out to be 0.4048.

For the compound `Cc1c(Cl)cccc1Nc1ncccc1C(=O)O.NCCCC[C@H](N)C(=O)O` [Clonixin Lysinate], the z.score.t amounted to 0.9603.

In the case of `COc1cc2c(c(OC)c1OC)-c1ccc(OC)c(=O)cc1[C@@H](NC(C)=O)CC2` [Colchicine], the z.score.t is on record as −1.804.

Compound `CCN1C[C@]2(COC)CC[C@H](O)[C@@]34C5C[C@@H]6[C@@H](OC)C[C@](O)(C(CC23)C14)C5[C@H]6OC(C)=O` (some centres unmarked) [Condelphine] showed a z.score.t of 2.361.

In turn, `COc1cc2cc3c4cc(OC)c(OC)cc4cc[n+]3c(C)c2cc1OC.O.[Cl-]` [Coralyne chloride hydrate] had a z.score.t of −1.014.

Regarding `CC=CC(=O)N(CC)c1ccccc1C` [Crotamiton], the z.score.t was −1.426.

For the compound `C[C@@H]1C[C@@H]([C@H](O)CC2CC(=O)NC(=O)C2)C(=O)[C@@H](C)C1` [Cycloheximide], the z.score.t is listed as −2.003.

Turning to `COc1ccccc1N1CCN(CCCCNC(=O)c2ccc3ccccc3c2)CC1.Cl.Cl` [DO 897/99], the z.score.t is −0.4139.

For `COc1cccc2c1C(=O)c1c(O)c3c(c(O)c1C2=O)C[C@@](O)(C(C)=O)C[C@@H]3O[C@H]1C[C@H](N)[C@H](O)[C@H](C)O1` [Daunorubicin hydrochloride], the z.score.t is given as −1.999.

Turning to `CC(=O)N(O)CCCCCNC(=O)CCC(=O)N(O)CCCCCNC(=O)CCC(=O)N(O)CCCCCN` [Deferoxamine mesylate], the z.score.t came to 0.557.

`CC(=O)O[C@H]1CC[C@@]2(C)C(=CC[C@@H]3[C@@H]2CC[C@]2(C)C(=O)CC[C@@H]32)C1` [Dehydroisoandosterone 3-acetate] yielded a z.score.t of 0.7349.

`CCN1C[C@]2(COC)CC[C@H](OC)[C@]34C5C[C@@H]6[C@@H](OC)C[C@@]7(OCO[C@@]7(C13)[C@@H](O)C24)C5[C@H]6OC` (some centres unmarked) [Delcorine] registered a z.score.t of −0.9741.

The test is the same for the next values; noted with them: HTS viability of hPSC-SCs in the presence of 30 mM glucose; Prestwick library; Table S4.
As to `CCCNC(=O)NS(=O)(=O)c1ccc(Cl)cc1` [Chlorpropamide], the z.score.t came out at 0.1979.

As to `CN(C)CC/C=C1/c2ccccc2Sc2ccc(Cl)cc21` [Chlorprothixene hydrochloride], the z.score.t is −0.6678.

`CN(C)[C@@H]1C(O)=C(C(N)=O)C(=O)[C@@]2(O)C(O)=C3C(=O)c4c(O)ccc(Cl)c4[C@@](C)(O)[C@H]3C[C@@H]12` [Chlortetracycline hydrochloride]: the z.score.t is given as 0.02534.

For the compound `NS(=O)(=O)c1cc(C2(O)NC(=O)c3ccccc32)ccc1Cl` (centres unmarked) [Chlorthalidone], the z.score.t is −1.061.

With `O=c1cc(-c2ccccc2)oc2cc(O)cc(O)c12` [Chrysin], the z.score.t is 0.2139.

Take `Cc1cc(C2CCCCC2)n(O)c(=O)c1.NCCO` [Ciclopirox ethanolamine]: the z.score.t was −1.422.

Take `O=C1CCc2cc(OCCCCc3nnnn3C3CCCCC3)ccc2N1` [Cilostazol]: the z.score.t worked out at 1.73.

As for `CN/C(=N/CCSCc1nc[nH]c1C)NC#N` [Cimetidine], the z.score.t was determined as 0.4346.

As to `C=C[C@H]1C[N@@]2CC[C@H]1C[C@@H]2[C@@H](O)c1ccnc2ccccc12` [Cinchonine], the z.score.t came out at 1.252.

Regarding `C(=C\c1ccccc1)/CN1CCN(C(c2ccccc2)c2ccccc2)CC1` [Cinnarizine], the z.score.t was −0.8513.

`CCn1nc(C(=O)O)c(=O)c2cc3c(cc21)OCO3` [Cinoxacin]: the z.score.t is 0.9525.

In the case of `CC(C)(Oc1ccc(C2CC2(Cl)Cl)cc1)C(=O)O` (centres unmarked) [Ciprofibrate], the z.score.t is −0.2611.

As for `O=C(O)c1cn(C2CC2)c2cc(N3CCNCC3)c(F)cc2c1=O` [Ciprofloxacin hydrochloride], the z.score.t worked out at 0.6386.

With `COc1cc(N)c(Cl)cc1C(=O)NC1CCN(CCCOc2ccc(F)cc2)CC1OC` (centres unmarked) [Cisapride], the z.score.t was 0.3436.

On to `CN(C)CCCC1(c2ccc(F)cc2)OCc2cc(C#N)ccc21` (centres unmarked) [Citalopram Hydrobromide], for which the z.score.t was −0.5169.

With `COc1cc(N)c(Cl)cc1C(=O)NC1CCN(Cc2ccccc2)CC1` [Clebopride maleate], the z.score.t is 1.08.

Regarding `CN1CCC[C@@H]1CCO[C@](C)(c1ccccc1)c1ccc(Cl)cc1` [Clemastine fumarate], the z.score.t is −1.892.

For the compound `Clc1ccc(Cn2c(CN3CCCC3)nc3ccccc32)cc1` [Clemizole hydrochloride], the z.score.t was found to be 0.7789.

As to `C[N+]12CCC(CC1)C(OC(=O)C(O)(c1ccccc1)c1ccccc1)C2` (centres unmarked) [Clidinium bromide], the z.score.t was determined as 1.743.

Regarding `Oc1c(I)cc(Cl)c2cccnc12` [Clioquinol], the z.score.t is on record as −0.2802.

For `CCC(=O)O[C@]1(C(=O)CCl)[C@@H](C)C[C@H]2[C@@H]3CCC4=CC(=O)C=C[C@]4(C)[C@@]3(F)[C@@H](O)C[C@@]21C` [Clobetasol propionate], the z.score.t was 1.323.

Take `C[C@@H]1C[C@H]2[C@@H]3C[C@H](F)C4=CC(=O)C=C[C@]4(C)[C@@]3(Cl)[C@@H](O)C[C@]2(C)[C@H]1C(=O)COC(=O)C(C)(C)C` [Clocortolone pivalate]: the z.score.t is reported as −0.7388.

For `CC(C)/N=c1\cc2n(-c3ccc(Cl)cc3)c3ccccc3nc-2cc1Nc1ccc(Cl)cc1` [Clofazimine], the z.score.t is given as −1.765.

For the compound `CC(C)(Oc1ccc(Cl)cc1)C(=O)O` [Clofibric acid], the z.score.t was −0.8317.

Take `CCN(CC)CCOc1ccc(C(=C(Cl)c2ccccc2)c2ccccc2)cc1.O=C(O)CC(O)(CC(=O)O)C(=O)O` [Clomiphene citrate (Z,E)]: the z.score.t is recorded as −1.755.

On to `CN(C)CCCN1c2ccccc2CCc2ccc(Cl)cc21` [Clomipramine hydrochloride], for which the z.score.t is −1.637.

For `Clc1cccc(Cl)c1N=C1NCCN1` [Clonidine hydrochloride], the z.score.t was determined as 1.056.

In the case of `C[C@@H]1CCC[C@H](C)N1NC(=O)c1ccc(Cl)c(S(N)(=O)=O)c1` [Clopamide], the z.score.t came out at 0.7847.

On to `Clc1ccc(C(OCCN2CCCCC2)c2ccccc2)cc1` (centres unmarked) [Cloperastine hydrochloride], for which the z.score.t is recorded as −1.185.

As for `C#CCN(C)CCCOc1ccc(Cl)cc1Cl` [Clorgyline hydrochloride], the z.score.t was found to be 0.1556.

In the case of `Nc1cc(C(Cl)=C(Cl)Cl)c(S(N)(=O)=O)cc1S(N)(=O)=O` [Clorsulon], the z.score.t was determined as 0.563.

Consider `Clc1ccccc1C(c1ccccc1)(c1ccccc1)n1ccnc1` [Clotrimazole], for which the z.score.t is reported as −1.91.

In the case of `Cc1onc(-c2ccccc2Cl)c1C(=O)N[C@@H]1C(=O)N2[C@@H]1SC(C)(C)[C@@H]2C(=O)O` [Cloxacillin sodium salt], the z.score.t is 0.6255.

As to `CN1CCN(C2=Nc3cc(Cl)ccc3Nc3ccccc32)CC1` [Clozapine], the z.score.t is on record as 1.049.

Take `C[C@H]1[C@H]2CC[C@H]3[C@@H]4CC=C5C[C@@H](N(C)C)CC[C@]5(C)[C@H]4CC[C@]23CN1C` [Conessine]: the z.score.t is given as 0.5822.

On to `COc1ccc(C(=O)OC2C[C@H]3CC[C@@H](C2)N3C)cc1OC.Cl` (some centres unmarked) [Convolamine hydrochloride], for which the z.score.t amounted to 1.345.

In the case of `C[C@]12C[C@H](O)[C@H]3[C@@H](CCC4=CC(=O)CC[C@@]43C)[C@@H]1CC[C@@H]2C(=O)CO` [Corticosterone], the z.score.t is listed as −0.2486.

For the compound `C[C@]12CCC(=O)C=C1CC[C@@H]1[C@@H]2C(=O)C[C@@]2(C)[C@H]1CC[C@]2(O)C(=O)CO` [Cortisone], the z.score.t is given as 0.9568.

With `COC(=O)[C@H]1[C@H]2C[C@H]3c4[nH]c5ccccc5c4CCN3C[C@@H]2CC[C@@H]1O.Cl` [Corynanthine hydrochloride], the z.score.t was found to be 1.095.

In the case of `O=C(O)c1cc(=O)c2c(OCC(O)COc3cccc4oc(C(=O)O)cc(=O)c34)cccc2o1` [Cromolyn disodium salt], the z.score.t came out at 0.557.

Regarding `CN1CCN(C(c2ccccc2)c2ccccc2)CC1` [Cyclizine hydrochloride], the z.score.t was 0.5437.

As for `CN(C)CCC=C1c2ccccc2C=Cc2ccccc21` [Cyclobenzaprine hydrochloride], the z.score.t was −0.1641.

As for `NS(=O)(=O)c1cc2c(cc1Cl)NC(CC1CCCC1)NS2(=O)=O` (centres unmarked) [Cyclopenthiazide], the z.score.t was determined as 2.573.

Turning to `CN(C)CCOC(=O)C(c1ccccc1)C1(O)CCCC1` (centres unmarked) [Cyclopentolate hydrochloride], the z.score.t was −0.5614.

Regarding `CN1CCC(=C2c3ccccc3C=Cc3ccccc32)CC1` [Cyproheptadine hydrochloride], the z.score.t was 0.4486.

Regarding `CC(=O)O[C@]1(C(C)=O)CC[C@H]2[C@@H]3C=C(Cl)C4=CC(=O)[C@@H]5C[C@@H]5[C@]4(C)[C@H]3CC[C@@]21C` [Cyproterone acetate], the z.score.t is −0.5219.

Regarding `N[C@@H]1CONC1=O` [D-cycloserine], the z.score.t is on record as 0.9162.

Take `CN(C)/N=N/c1[nH]cnc1C(N)=O` [Dacarbazine]: the z.score.t is −0.6301.

With `C#C[C@]1(O)CC[C@H]2[C@@H]3CCC4=Cc5oncc5C[C@]4(C)[C@H]3CC[C@@]21C` [Danazol], the z.score.t was 0.1149.

For the compound `O=C1CN(/N=C/c2ccc(-c3ccc([N+](=O)[O-])cc3)o2)C(O)=N1` [Dantrolene sodium salt], the z.score.t is 1.306.

In the case of `Nc1ccc(S(=O)(=O)c2ccc(N)cc2)cc1` [Dapsone], the z.score.t is reported as 1.024.

Regarding `N=C(N)N1CCc2ccccc2C1` [Debrisoquin sulfate], the z.score.t is 0.6578.

For `C[N+](C)(C)CCCCCCCCCC[N+](C)(C)C` [Decamethonium bromide], the z.score.t is −1.558.

As for `C[C@H](CCC(=O)O)[C@H]1CC[C@H]2[C@@H]3C(=O)C[C@@H]4CC(=O)CC[C@]4(C)[C@H]3CC(=O)[C@]12C` [Dehydrocholic acid], the z.score.t was determined as 1.472.

Values taken from patent US20260053861A1, “CELL COMPOSITIONS AND METHODS OF USING THE SAME” (THE REGENTS OF THE UNIVERSITY OF CALIFORNIA, priority 2022, published 2026).
